The NIST ThermoML archive (doi:10.1016/j.jct.2006.03.018)
Numbers after ± are expanded uncertainties.

Tests used:
[1] = xn = mol fraction of the nth substance listed; conditions: 101 kPa, Liquid, x2 = 0
[2] = refractive index (Na D-line) (dimensionless); xn = mol fraction of the nth substance listed; conditions: 101 kPa, Liquid, x2 = 0

mass density ([1]; 298.15 K): 806.12 ± 14 kg/m3
speed of sound ([1]; 298.15 K): 1246 ± 43 m/s
viscosity ([1]; 298.15 K): 2.585 ± 0.3 mPa·s
mass density ([1]; 303.15 K): 802.28 ± 14 kg/m3
viscosity ([1]; 303.15 K): 2.284 ± 0.27 mPa·s
mass density ([1]; 308.15 K): 798.41 ± 14 kg/m3
viscosity ([1]; 308.15 K): 1.981 ± 0.24 mPa·s
refractive index ([2]; 298.15 K): 1.3968 ± 0.005
refractive index ([2]; 303.15 K): 1.3944 ± 0.005
refractive index ([2]; 308.15 K): 1.3923 ± 0.005
SMILES: CCCCO [butan-1-ol] + COc1ccccc1
